Here are results for eleven compounds from ChEMBL document CHEMBL1201862, “PubChem BioAssay data set” (2004).

Among the test systems are UACC-62; SK-MEL-5; K562; HT-29; BT-549; SF-268; IGROV-1; ACHN; 786-0; Hs-578T; T47D; PC-3; NCI-H460; UO-31; UACC-257; MDA-MB-435; LOX IMVI; HCT-15; EKVX; NCI-H522.
Common to all, as to test: NCI-60 cell line screen, 48 h

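These data come from cells grown in 96-well plates and exposed to compound for 48 hours at five concentrations. GI50 marks 50% less growth.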 Activity calls are given as the source filed them. No stated cut-off is given here; in the data, active = GI50 up to about 1.1 µM and inactive = higher.

For the compound `OCC1OC(NC(=S)NCCC(F)(F)C(F)(F)C(F)(F)C(F)(F)C(F)(F)C(F)(F)F)C(O)C(O)C1O` (configuration not stated), the GI50 in the test on UACC-62 was 67.9 µM (inactive); in the test on SK-MEL-5, 35.6 µM (inactive); in the test with K562, 28.2 µM (inactive); in the test on HT-29, > 100 µM (inactive); in the test with BT-549, > 100 µM (inactive); in the test with SF-268, > 100 µM (inactive). Besides, the GI50 was 65.9 µM (inactive) in the test on IGROV-1; 88.1 µM (inactive) with ACHN; > 100 µM (inactive) in the test with 786-0; > 100 µM (inactive) in the test with Hs-578T; > 100 µM (inactive) in the test on T47D; 43 µM (inactive) with PC-3. Further, the GI50 is > 100 µM (inactive) in the test with NCI-H460; > 100 µM (inactive) in the test with UO-31; 54.7 µM (inactive) with UACC-257; 58.6 µM (inactive) in the test on MDA-MB-435; 49.5 µM (inactive) in the test on LOX IMVI; more than 100 µM in the test with HCT-15.
Consider `Cc1cc(C)nc(NS(=O)(=O)c2ccc(NNc3c4ccccc4nc4c(C(=O)Nc5ccc(S(=O)(=O)N=C(N)N)cc5)cccc34)cc2)n1`, for which the GI50 in the test with SK-MEL-5 is 53.1 µM (inactive); in the test on K562 it was 31.4 µM (inactive); in the test on HT-29 it was 26.6 µM (inactive); in the test on BT-549 it was 56 µM (inactive); in the test with SF-268 it was 45 µM (inactive); in the test on IGROV-1 it was 53 µM (inactive). The GI50 in the test on ACHN was 45 µM (inactive); with 786-0, 65.5 µM (inactive); with EKVX, 30.5 µM (inactive); with NCI-H522 it was 36.6 µM (inactive); in the test on T47D, 25.8 µM (inactive); in the test on PC-3, 31.6 µM (inactive). The GI50 with NCI-H460 was 47.4 µM (inactive); in the test on UO-31 it was 27.7 µM (inactive); with UACC-257, > 100 µM (inactive); in the test with MDA-MB-435, 39.1 µM (inactive); in the test with LOX IMVI, 33.7 µM (inactive); in the test on HCT-15, 63.4 µM.
Take `COc1cc(C2SCC(=O)N2c2ccccn2)cc(OC)c1OC` (configuration not stated): the GI50 in the test with UACC-62 was 87.5 µM (inactive); in the test on SK-MEL-5 it was 55 µM (inactive); in the test with K562 it was 48.4 µM (inactive); in the test with HT-29 it was > 100 µM (inactive); in the test with BT-549, 98.6 µM (inactive); in the test with SF-268, > 100 µM (inactive). In addition, the GI50 was 81.1 µM (inactive) with IGROV-1; > 100 µM (inactive) in the test on ACHN; > 100 µM (inactive) in the test with 786-0; > 100 µM (inactive) in the test with EKVX; > 100 µM (inactive) with Hs-578T; 57.7 µM (inactive) in the test with NCI-H522. In addition, the GI50 in the test on PC-3 is > 100 µM (inactive); in the test on NCI-H460, > 100 µM (inactive); with UO-31 it was > 100 µM (inactive); in the test on UACC-257 it was 49.8 µM (inactive); in the test on MDA-MB-435 it was 27 µM (inactive); with LOX IMVI, > 100 µM (inactive). Further, the GI50 in the test with HCT-15 is 55.5 µM.
Regarding `CSC1=C(C)C(/C=N/Nc2ccc([N+](=O)[O-])cc2)=C(C)N(c2ccccc2)S1(=O)=O`, the GI50 in the test on UACC-62 is 74.1 µM (inactive); in the test with SK-MEL-5, 17.4 µM (inactive); in the test with K562, 7.71 µM (inactive); with HT-29 it was 28.5 µM (inactive); with BT-549 it was 20.8 µM (inactive); in the test with SF-268 it was > 100 µM (inactive). The GI50 in the test with IGROV-1 is 28.2 µM (inactive); with ACHN, 44.9 µM (inactive); with 786-0, > 100 µM (inactive); in the test on EKVX it was 33.9 µM (inactive); in the test with NCI-H522, 12.9 µM (inactive); in the test on T47D, 3.09 µM (inactive). The GI50 with PC-3 is 25.9 µM (inactive); in the test with NCI-H460, 16.6 µM (inactive); in the test on UO-31, 29.3 µM (inactive); with UACC-257 it was > 100 µM (inactive); with MDA-MB-435 it was > 100 µM (inactive); in the test with LOX IMVI, 19.6 µM (inactive). In the test with HCT-15, this compound showed a GI50 of 68.9 µM.
Turning to `COc1ccc(NC(=S)N/N=C/c2c(C)n(C)n(-c3ccccc3)c2=O)cc1`, the GI50 in the test on UACC-62 is 51.1 µM (inactive); in the test on SK-MEL-5, > 100 µM (inactive); in the test with K562, 26.2 µM (inactive); in the test on HT-29 it was 69.5 µM (inactive); in the test with BT-549, 43.7 µM (inactive); with SF-268, 27.9 µM (inactive). The GI50 in the test with IGROV-1 was 47.5 µM (inactive); in the test with ACHN it was 34.7 µM (inactive); in the test with 786-0, 24.1 µM (inactive); in the test on EKVX, 42.8 µM (inactive); with Hs-578T, 29.9 µM (inactive); in the test with PC-3 it was 69.8 µM (inactive). Also, the GI50 with UO-31 was 26.4 µM (inactive); with UACC-257, > 100 µM (inactive); with MDA-MB-435 it was 51.4 µM (inactive); in the test with LOX IMVI it was > 100 µM (inactive); in the test on HCT-15 it was more than 100 µM.
For the compound `CC(C)C1CN1CC(O)Cn1ccnc1[N+](=O)[O-]` (configuration not stated), the GI50 in the test on UACC-62, in the test with SK-MEL-5, with K562, in the test with HT-29, in the test on BT-549 and in the test on SF-268 was > 100 µM (inactive) in each case. Further, the GI50 with IGROV-1, in the test on ACHN, with 786-0, in the test on EKVX, in the test with Hs-578T and in the test on NCI-H522 was > 100 µM (inactive) in each case. For the same compound, the GI50 in the test with T47D was > 100 µM (inactive); in the test on PC-3, > 100 µM (inactive); in the test on NCI-H460, > 100 µM (inactive); with UO-31, > 100 µM (inactive); in the test on UACC-257, > 100 µM (inactive); with HCT-15 it was more than 100 µM.
In the case of `O=C1C=CC(=C(c2ccccc2)c2ccc(O)cc2)C=C1`, the GI50 in the test on UACC-62 is 14.1 µM (inactive); in the test on SK-MEL-5, 11.5 µM (inactive); in the test on K562, 15.1 µM (inactive); with HT-29, 20.7 µM (inactive); with BT-549 it was 6.03 µM (inactive); in the test on SF-268, 20 µM (inactive). Besides, the GI50 in the test on IGROV-1 was 8.41 µM (inactive); in the test on ACHN, 19.4 µM (inactive); with 786-0, 18.7 µM (inactive); in the test with EKVX it was 13.7 µM (inactive); with Hs-578T, 16.7 µM (inactive); in the test with NCI-H522 it was 13.7 µM (inactive). For the same compound, the GI50 in the test with PC-3 was 22.1 µM (inactive); in the test on NCI-H460 it was 17.3 µM (inactive); in the test on UO-31, 14.8 µM (inactive); with UACC-257 it was 16.9 µM (inactive); with MDA-MB-435, 15.7 µM (inactive); in the test with LOX IMVI it was 4.51 µM (inactive). In the test with HCT-15, the GI50 is 14.2 µM.
With `CCOC1C=CCCO1` (configuration not stated), the GI50 with UACC-62, in the test on SK-MEL-5, in the test on K562, with HT-29, in the test on SF-268 and in the test with IGROV-1 was > 100 µM (inactive) in each case. Moreover, the GI50 in the test with ACHN is > 100 µM (inactive); in the test with 786-0, > 100 µM (inactive); in the test with EKVX, > 100 µM (inactive); in the test on Hs-578T, > 100 µM (inactive); with NCI-H522 it was > 100 µM (inactive); in the test with T47D, 0.701 µM (active). The GI50 was > 100 µM (inactive) in the test on PC-3; > 100 µM (inactive) in the test with NCI-H460; 2.99 µM (inactive) in the test with UO-31; > 100 µM (inactive) in the test on UACC-257; > 100 µM (inactive) with MDA-MB-435; > 100 µM (inactive) in the test on LOX IMVI. For the same compound, the GI50 in the test on HCT-15 was more than 100 µM.
In the case of `COc1ccc(/C=C2/C(=O)N(C(=O)c3ccccc3O)N=C2C)cc1OC`, the GI50 in the test with UACC-62 is 0.147 µM (active); in the test on SK-MEL-5 it was 0.982 µM (active); in the test with HT-29 it was 16.8 µM (inactive); with BT-549 it was 0.388 µM (active); in the test with SF-268 it was 0.556 µM (active); in the test with IGROV-1 it was 0.133 µM (active). The GI50 in the test with ACHN is 0.162 µM (active); with 786-0, 1.26 µM (inactive); in the test with EKVX, 1.38 µM (inactive); in the test with NCI-H522 it was 1.71 µM (inactive); with PC-3, 2.37 µM (inactive); in the test with NCI-H460 it was 0.34 µM (active). Moreover, the GI50 is 0.202 µM (active) with UO-31; 1.42 µM (inactive) in the test with UACC-257; 0.355 µM (active) in the test on MDA-MB-435; 0.603 µM (active) in the test on LOX IMVI; 0.64 µM with HCT-15.
On to `CSc1nc2c(c(=O)n1C)N=C(c1ccc([N+](=O)[O-])cc1)CC(c1ccccc1)N2` (configuration not stated), for which the GI50 in the test on UACC-62, in the test on SK-MEL-5, in the test on K562, in the test with HT-29, with BT-549 and with IGROV-1 was > 100 µM (inactive) throughout. In addition, the GI50 in the test with ACHN was 95.9 µM (inactive); with 786-0, > 100 µM (inactive); in the test on EKVX, > 100 µM (inactive); with NCI-H522, 48.8 µM (inactive); in the test with PC-3, > 100 µM (inactive); in the test with NCI-H460 it was 90.6 µM (inactive). Also, the GI50 with UO-31 is > 100 µM (inactive); in the test with UACC-257, > 100 µM (inactive); in the test with MDA-MB-435 it was > 100 µM (inactive); with LOX IMVI, 78.9 µM (inactive).
On to `CC(C)(C)OC(=O)N1CCCC1C(=O)NCCNc1ccc(NCCNC(=O)C2CCCN2C(=O)OC(C)(C)C)c2c1C(=O)c1ccccc1C2=O` (configuration not stated), for which the GI50 in the test with UACC-62 is 11.6 µM (inactive); with SK-MEL-5 it was 0.112 µM (active); with K562, < 0.01 µM (active); with HT-29, 13.7 µM (inactive); in the test with BT-549 it was 13 µM (inactive); with SF-268, 31.3 µM (inactive). Further, the GI50 in the test with IGROV-1 was 13.9 µM (inactive); with ACHN it was 15.4 µM (inactive); in the test on 786-0 it was 14.8 µM (inactive); in the test on EKVX, 27 µM (inactive); in the test with Hs-578T, 18.7 µM (inactive); in the test with NCI-H522, 13 µM (inactive). In addition, the GI50 was 11.1 µM (inactive) in the test with PC-3; 14.5 µM (inactive) in the test with UACC-257; 14.1 µM (inactive) in the test on MDA-MB-435; 12.4 µM (inactive) in the test with LOX IMVI; 13.9 µM in the test on HCT-15.
